Data taken from patent US20250388605A1, “HETEROBIFUNCTIONAL COMPOUNDS AND METHODS OF TREATING DISEASE” (Halda Therapeutics OpCo, Inc., priority 2022, published 2025).

Key:
[1] = system: T-Rex 293 cell line SC3 cells having increased expression of androgen receptor protein due to exposure to doxycycline; experiment: Cellular growth inhibition, T-Rex 293 SC3 cells with doxycycline (increased androgen receptor expression), CellTiter-Glo; format: cell-based; conditions: T-Rex 293 SC3 cells with 10 ng/mL doxycycline (increased androgen receptor expression), 72 hours, CellTiter-Glo 2.0
In short: (§1)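 Doxycycline (10 ng/mL) was either included or omitted to toggle wild-type androgen receptor expression in SC3 cells, a T-Rex 293 clone, grown in stripped-serum, phenol red-free medium. After 72 hours with compound, viable cells were quantified by CellTiter-Glo 2.0.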

[2] = system: T-Rex 293 cell line SC3 cells lacking increased expression of androgen receptor protein; experiment: Cellular growth inhibition, T-Rex 293 SC3 cells without doxycycline (no increased androgen receptor expression), CellTiter-Glo; format: cell-based; conditions: T-Rex 293 SC3 cells not exposed to doxycycline (no increased androgen receptor expression), 72 hours
In short: as §1

VCaP cells = experiment: Cellular growth inhibition assay for VCaP cells, CellTiter-Glo; format: cell-based, human; conditions: 72 hours
In short: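 GI50 values come from four-parameter curve fits of luminescence data normalized to a zero baseline. Compound, in medium with 0.5% DMSO, was added one day after plating and left for 72 h before CellTiter-Glo 2.0 addition.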

T47D cells = experiment: Cellular Growth Inhibition Assay for T47D Cells (CellTiter-Glo); format: cell-based, human; conditions: 72 hours
In short: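 GI50 values derive from four-parameter regression of CellTiter-Glo 2.0 luminescence, using zero luminescence as baseline. Human breast cancer T47D cells (3000/well; DMEM, 10% FBS, 0.2 units/mL insulin) were exposed for 72 h to compound dilutions at 0.5% DMSO, with dosing starting 24 h after seeding.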

Row | GI50 (VCaP cells; Homo sapiens) [nM] | GI50 (T47D cells; Homo sapiens) [nM] | GI50 (VCaP cells) [nM] | GI50 (T47D cells) [nM] | Structure (SMILES) | GI50 [1] [nM] | GI50 [2] [nM]
1 | < 500 | < 500 |  |  | CCS(=O)(=O)c1ccc(OC2CC(CCN3CCC4(CCN(c5ncc(C(=O)N[C@H]6C(C)(C)[C@H](Oc7ccc(C#N)c(Cl)c7)C6(C)C)cn5)C4)C3)C2)c(-c2cn(C)c(=O)c3[nH]ccc23)c1 (stereo partly shown) [Compound I-270, N-[3-(3-chloro-4-cyano-phenoxy)-2,2,4,4-tetramethyl-cyclobutyl]-2-[7-[2-[3-[4-ethylsulfonyl-2-(6-methyl-7-oxo-1H-pyrrolo[2,3-c]pyridin-4-yl)phenoxy]cyclobutyl]ethyl]-2,7-diazaspiro[4.4]nonan-2-yl]pyrimidine-5-carboxamide] | < 500 | 500 to 1500
2 | < 500 | < 500 |  |  | CCS(=O)(=O)c1ccc(Oc2ccc(CN3CC4(C3)CN(c3ncc(C(=O)N[C@H]5C(C)(C)[C@H](Oc6ccc(C#N)c(Cl)c6)C5(C)C)cn3)C4)c(F)c2)c(-c2cn(C)c(=O)c3[nH]ccc23)c1 [Compound I-271] | < 500 | < 500
3 | < 500 | < 500 |  |  | CCS(=O)(=O)c1ccc(Oc2ccc(CN3CCC4(CCN(c5ncc(C(=O)N[C@H]6C(C)(C)[C@H](Oc7ccc(C#N)c(Cl)c7)C6(C)C)cn5)C4)C3)c(F)c2)c(-c2cn(C)c(=O)c3[nH]ccc23)c1 (stereo partly shown) [Compound I-272] | < 500 | < 500
4 | < 500 | < 500 |  |  | CCS(=O)(=O)c1ccc(Oc2ccc(CN3CC4(CCN(c5ncc(C(=O)N[C@H]6C(C)(C)[C@H](Oc7ccc(C#N)c(Cl)c7)C6(C)C)cn5)CC4)C3)c(F)c2)c(-c2cn(C)c(=O)c3[nH]ccc23)c1 [Compound I-275] | < 500 | < 500
5 | < 500 | < 500 |  |  | CCS(=O)(=O)c1ccc(Oc2ccc(OC3CC4(C3)CN(c3ncc(C(=O)N[C@H]5C(C)(C)[C@H](Oc6ccc(C#N)c(Cl)c6)C5(C)C)cn3)C4)c(F)c2)c(-c2cn(C)c(=O)c3[nH]ccc23)c1 [Compound I-276] | < 500 | < 500
6 | < 500 | < 500 |  |  | CCS(=O)(=O)c1ccc(Oc2ccc(CC3CCN(c4ncc(C(=O)N[C@H]5C(C)(C)[C@H](Oc6ccc(C#N)c(Cl)c6)C5(C)C)cn4)CC3)c(F)c2)c(-c2cn(C)c(=O)c3[nH]ccc23)c1 [Compound I-278] | < 500 | > 3000
7 | < 500 | < 500 |  |  | CCS(=O)(=O)c1ccc(Oc2ccc(OC3CC4(CCN(c5ncc(C(=O)N[C@H]6C(C)(C)[C@H](Oc7ccc(C#N)c(Cl)c7)C6(C)C)cn5)CC4)C3)c(F)c2)c(-c2cn(C)c(=O)c3[nH]ccc23)c1 [Compound I-283] | < 500 | > 3000
8 |  |  | < 500 | < 500 | CCS(=O)(=O)c1ccc(Oc2ccc(CCC3CCN(c4ncc(C(=O)N[C@H]5C(C)(C)[C@H](Oc6ccc(C#N)c(Cl)c6)C5(C)C)cn4)CC3)c(F)c2)c(-c2cn(C)c(=O)c3[nH]ccc23)c1 [Compound I-284] | < 500 | > 3000
9 | < 500 | < 500 |  |  | CCS(=O)(=O)c1ccc(Oc2ccc(CCCC3CCN(c4ncc(C(=O)N[C@H]5C(C)(C)[C@H](Oc6ccc(C#N)c(Cl)c6)C5(C)C)cn4)CC3)c(F)c2)c(-c2cn(C)c(=O)c3[nH]ccc23)c1 [Compound I-285] | < 500 | > 3000

Further lines, the compound ahead of its results:

Row | Structure (SMILES) | GI50 (VCaP cells; Homo sapiens) [nM] | GI50 (T47D cells; Homo sapiens) [nM] | GI50 (VCaP cells) [nM] | GI50 (T47D cells) [nM] | GI50 [1] [nM] | GI50 [2] [nM]
10 | Cn1cc(-c2cc(C(C)(C)O)ccc2Oc2cccc(N3CC(CN4CCN(c5ncc(C(=O)N[C@H]6C(C)(C)[C@H](Oc7ccc(C#N)c(Cl)c7)C6(C)C)cn5)C5(CC5)C4)C3)c2F)c2cc[nH]c2c1=O [Compound I-273] |  |  | < 500 | < 500 | < 500 | 500 to 1500
11 | Cn1cc(-c2cc(C(C)(C)O)ccc2OC2CC(OC3CCN(c4ncc(C(=O)NC5C(C)(C)C(Oc6ccc(C#N)c(Cl)c6)C5(C)C)cn4)CC3)C2)c2cc[nH]c2c1=O (stereo not shown) [Compound I-274, N-[3-(3-chloro-4-cyano-phenoxy)-2,2,4,4-tetramethyl-cyclobutyl]-2-[4-[3-[4-(1-hydroxy-1-methyl-ethyl)-2-(6-methyl-7-oxo-1H-pyrrolo[2,3-c]pyridin-4-yl)phenoxy]cyclobutoxy]-1-piperidyl]pyrimidine-5-carboxamide] | < 500 | < 500 |  |  | < 500 | < 500
12 | CCS(=O)(=O)Nc1ccc(Oc2ccc(OCC3CCN(c4ncc(C(=O)N[C@H]5C(C)(C)[C@H](Oc6ccc(Cl)c(C#N)c6)C5(C)C)cn4)CC3)cc2)c(-c2cn(C)c(=O)c3[nH]ccc23)c1 [Compound I-277] |  |  | < 500 | < 500 | < 500 | < 500
13 | Cn1cc(-c2cc(C(C)(C)O)ccc2OC2CC3(C2)CN(CCC2CCN(c4ncc(C(=O)NC5C(C)(C)C(Oc6ccc(C#N)c(Cl)c6)C5(C)C)cn4)CC2)C3)c2cc[nH]c2c1=O (stereo not shown) [Compound I-281, N-[3-(3-chloro-4-cyano-phenoxy)-2,2,4,4-tetramethyl-cyclobutyl]-2-[4-[2-[6-[4-(1-hydroxy-1-methyl-ethyl)-2-(6-methyl-7-oxo-1H-pyrrolo[2,3-c]pyridin-4-yl)phenoxy]-2-azaspiro[3.3]heptan-2-yl]ethyl]-1-piperidyl]pyrimidine-5-carboxamide] | < 500 | < 500 |  |  | < 500 | 500 to 1500
14 | Cn1cc(-c2cc(C(C)(C)O)ccc2OCC(C)(C)CN2CC(OC3CCN(c4ncc(C(=O)NC5C(C)(C)C(Oc6ccc(C#N)c(Cl)c6)C5(C)C)cn4)CC3)C2)c2cc[nH]c2c1=O (stereo not shown) [Compound I-282, N-[3-(3-chloro-4-cyano-phenoxy)-2,2,4,4-tetramethyl-cyclobutyl]-2-[4-[1-[3-[4-(1-hydroxy-1-methyl-ethyl)-2-(6-methyl-7-oxo-1H-pyrrolo[2,3-c]pyridin-4-yl)phenoxy]-2,2-dimethyl-propyl]azetidin-3-yl]oxy-1-piperidyl]pyrimidine-5-carboxamide] | < 500 | 500 to 1500 |  |  | < 500 | 500 to 1500
15 | Cn1cc(-c2cc(C(C)(C)O)ccc2Oc2ccc(CCC3C4CN(c5ncc(C(=O)N[C@H]6C(C)(C)[C@H](Oc7ccc(C#N)c(Cl)c7)C6(C)C)cn5)CC34)cc2)c2cc[nH]c2c1=O (stereo partly shown) [Compound I-286] |  |  | < 500 | < 500 | < 500 | 500 to 1500
16 | Cn1cc(-c2cc(C(C)(C)O)ccc2Oc2ccc(CCC3CCN(c4ncc(C(=O)NC5C(C)(C)C(Oc6ccc(C#N)c(Cl)c6)C5(C)C)cn4)CC3)cn2)c2cc[nH]c2c1=O (stereo not shown) [Compound I-287, N-[3-(3-chloro-4-cyano-phenoxy)-2,2,4,4-tetramethyl-cyclobutyl]-2-[4-[2-[6-[4-(1-hydroxy-1-methyl-ethyl)-2-(6-methyl-7-oxo-1H-pyrrolo[2,3-c]pyridin-4-yl)phenoxy]-3-pyridyl]ethyl]-1-piperidyl]pyrimidine-5-carboxamide] | 500 to 1500 | < 500 |  |  | < 500 | > 3000
